Our source for the MIC80 values is ChEMBL document CHEMBL6182926, “Design, Synthesis, and Biological Activity Evaluation of Deuterated Diphenyl Azole Alcohol-Based CYP51 Inhibitors” (J Med Chem, 2025).

The structures appear in SMILES notation. In brackets after ≈: the same amount, converted by molar mass.

Common to all, as to format: functional
Assay [1] concerns Candida albicans. Kind of assay: Antifungal activity against Candida albicans CPCC 400616 assessed as inhibition of visible growth.
The subject of assay [2] is Cryptococcus neoformans. Briefly: Antifungal activity against Cryptococcus neoformans CGMCC 2.3161 assessed as inhibition of visible growth.
For assay [3], the system named is Aspergillus fumigatus. Briefly: Antifungal activity against Aspergillus fumigatus CGMCC 3.7795 assessed as inhibition of visible growth.
Assay [4] deals with Pichia kudriavzevii. Briefly: Antifungal activity against Candida krusei AS 2.1045 assessed as inhibition of visible growth.
The test system of assay [5] is Nakaseomyces glabratus. Kind of assay: Antifungal activity against Clinical isolate Candida glabrata assessed as inhibition of visible growth.
Assay [6] has as its system Candida parapsilosis. Briefly: Antifungal activity against Candida parapsilosis GIM 2.190 assessed as inhibition of visible growth. Particulars: Lodderomyces parapsilosis.
The subject of assay [7] is Candida tropicalis. Briefly: Antifungal activity against Candida tropicalis CGMCC 2.3739 assessed as inhibition of visible growth.
Assay [8] deals with Candida albicans. Kind of assay: Antifungal activity against Candida albicans SC 5314 assessed as inhibition of visible growth.

The MIC80 is the lowest concentration that inhibits either 80% of growth or 80% of the strains tested, depending on the study. For `[2H]C([2H])([2H])N(Cc1ccc(-c2ccc(Cl)cc2F)cc1F)[C@H](C)[C@](O)(Cn1cncn1)c1ccc(F)cc1F`, the MIC80 in assay [1] was 0.012 µg/mL (≈ 0.023 µM); in assay [2], 0.025 µg/mL (≈ 0.0479 µM); in assay [3] it was 0.05 µg/mL (≈ 0.0958 µM); in assay [4] it was 0.05 µg/mL (≈ 0.0958 µM); in assay [5], 0.025 µg/mL (≈ 0.0479 µM); in assay [6] it was 0.012 µg/mL (≈ 0.023 µM). For the same compound, the MIC80 in assay [7] and in assay [8] was 0.012 µg/mL (≈ 0.023 µM) throughout.
On to `[2H]C([2H])([2H])N(Cc1ccc(-c2ccc(Cl)cc2F)nc1)[C@H](C)[C@](O)(Cn1cncn1)c1ccc(F)cc1F`, for which the MIC80 in assay [1] turned out to be 0.006 µg/mL (≈ 0.0119 µM); in assay [2] it was 0.012 µg/mL (≈ 0.0238 µM); in assay [3], 0.05 µg/mL (≈ 0.099 µM); in assay [4], 0.012 µg/mL (≈ 0.0238 µM); in assay [5] it was 0.012 µg/mL (≈ 0.0238 µM); in assay [6], 0.006 µg/mL (≈ 0.0119 µM). The MIC80 in assay [7] and in assay [8] was 0.012 µg/mL (≈ 0.0238 µM) each time.
For the compound `[2H]C([2H])([2H])N(Cc1ccc(-c2ccc(Cl)cc2)cc1)[C@H](C)[C@](O)(Cn1cncn1)c1ccc(F)cc1F`, the MIC80 in assay [1] amounted to 0.006 µg/mL (≈ 0.0123 µM); in assay [2], 0.006 µg/mL (≈ 0.0123 µM); in assay [3] it was 0.025 µg/mL (≈ 0.0514 µM); in assay [4] it was 0.012 µg/mL (≈ 0.0247 µM); in assay [5], 0.012 µg/mL (≈ 0.0247 µM); in assay [6], 0.006 µg/mL (≈ 0.0123 µM). Also, the MIC80 in assay [7] and in assay [8] was 0.006 µg/mL (≈ 0.0123 µM) in each case.
Turning to `[2H]C([2H])([2H])N(Cc1ccc(-c2ccc(Cl)cc2)cc1F)[C@H](C)[C@](O)(Cn1cncn1)c1ccc(F)cc1F`, the MIC80 amounted to 0.006 µg/mL (≈ 0.0119 µM) in assay [1]; 0.012 µg/mL (≈ 0.0238 µM) in assay [2]; 0.025 µg/mL (≈ 0.0496 µM) in assay [3]; 0.012 µg/mL (≈ 0.0238 µM) in assay [4]; 0.012 µg/mL (≈ 0.0238 µM) in assay [5]; 0.006 µg/mL (≈ 0.0119 µM) in assay [6]. Also, the MIC80 in assay [7] and in assay [8] was 0.006 µg/mL (≈ 0.0119 µM) throughout.
For the compound `OC(CN(Cc1ccc(-c2ccc(Cl)cc2)cc1)C1CC1)(Cn1cncn1)c1ccc(F)cc1F` (stereo not given), the MIC80 in assay [1], in assay [2], in assay [4], in assay [5], in assay [6] and in assay [7] was above 3.2 µg/mL each time. In assay [8], the MIC80 was above 3.2 µg/mL.
As for `CN(Cc1ccc(-c2ccc(Cl)cc2)cn1)CC(O)(Cn1cncn1)c1ccc(F)cc1F` (stereo not given), the MIC80 came to 0.012 µg/mL (≈ 0.0255 µM) in assay [1]; 0.025 µg/mL (≈ 0.0532 µM) in assay [2]; 0.05 µg/mL (≈ 0.106 µM) in assay [4]; 0.05 µg/mL (≈ 0.106 µM) in assay [5]; 0.006 µg/mL (≈ 0.0128 µM) in assay [6]; 0.012 µg/mL (≈ 0.0255 µM) in assay [7]. For the same compound, the MIC80 in assay [8] amounted to 0.012 µg/mL (≈ 0.0255 µM).
`CN(Cc1nc(-c2ccc(OC(F)(F)F)cc2)cs1)CC(O)(Cn1cncn1)c1ccc(F)cc1F` (stereo not given): the MIC80 amounted to 0.025 µg/mL (≈ 0.0476 µM) in assay [1]; 0.1 µg/mL (≈ 0.19 µM) in assay [2]; 0.2 µg/mL (≈ 0.381 µM) in assay [4]; 0.4 µg/mL (≈ 0.761 µM) in assay [5]; 0.025 µg/mL (≈ 0.0476 µM) in assay [6]; 0.025 µg/mL (≈ 0.0476 µM) in assay [7]. In addition, in assay [8], the MIC80 stood at 0.012 µg/mL (≈ 0.0228 µM).
Turning to `CN(Cc1ccc(-c2ccc(OC(F)(F)F)cc2)s1)CC(O)(Cn1cncn1)c1ccc(F)cc1F` (stereo not given), the MIC80 came to 0.012 µg/mL (≈ 0.0229 µM) in assay [1]; 0.05 µg/mL (≈ 0.0953 µM) in assay [2]; 0.05 µg/mL (≈ 0.0953 µM) in assay [4]; 0.1 µg/mL (≈ 0.191 µM) in assay [5]; 0.006 µg/mL (≈ 0.0114 µM) in assay [6]; 0.006 µg/mL (≈ 0.0114 µM) in assay [7]. Moreover, the MIC80 in assay [8] came to 0.006 µg/mL (≈ 0.0114 µM).
Regarding `CN(Cc1cnc(-c2ccc(OC(F)(F)F)cc2)s1)CC(O)(Cn1cncn1)c1ccc(F)cc1F` (stereo not given), the MIC80 in assay [1] amounted to 0.025 µg/mL (≈ 0.0476 µM); in assay [2] it was 0.1 µg/mL (≈ 0.19 µM); in assay [4], 0.1 µg/mL (≈ 0.19 µM); in assay [5] it was 0.2 µg/mL (≈ 0.381 µM); in assay [6] it was 0.05 µg/mL (≈ 0.0951 µM); in assay [7] it was 0.006 µg/mL (≈ 0.0114 µM). Also, the MIC80 in assay [8] was found to be 0.025 µg/mL (≈ 0.0476 µM).
Regarding `C[C@@H](N(C)Cc1ccc(-c2ccc(Cl)cc2)cc1)[C@](O)(Cn1cncn1)c1ccc(F)cc1F`, the MIC80 worked out at 0.006 µg/mL (≈ 0.0124 µM) in assay [1]; 0.012 µg/mL (≈ 0.0248 µM) in assay [2]; 0.012 µg/mL (≈ 0.0248 µM) in assay [4]; 0.012 µg/mL (≈ 0.0248 µM) in assay [5]; 0.006 µg/mL (≈ 0.0124 µM) in assay [6]; 0.006 µg/mL (≈ 0.0124 µM) in assay [7]. In addition, in assay [8], the MIC80 worked out at 0.006 µg/mL (≈ 0.0124 µM).
Turning to `CCc1ccc(-c2ccc(CN(C)CC(O)(Cn3cncn3)c3ccc(F)cc3F)nc2)cc1` (stereo not given), the MIC80 in assay [1] is 0.012 µg/mL (≈ 0.0259 µM); in assay [2], 0.025 µg/mL (≈ 0.0539 µM); in assay [4], 0.05 µg/mL (≈ 0.108 µM); in assay [5], 0.1 µg/mL (≈ 0.216 µM); in assay [6] it was 0.012 µg/mL (≈ 0.0259 µM); in assay [7], 0.012 µg/mL (≈ 0.0259 µM). The MIC80 in assay [8] is 0.025 µg/mL (≈ 0.0539 µM).
Consider `CN(Cc1ccc(-c2ccc(C(F)(F)F)cc2)o1)CC(O)(Cn1cncn1)c1ccc(F)cc1F` (stereo not given), for which the MIC80 in assay [1] was found to be 0.025 µg/mL (≈ 0.0508 µM); in assay [2], 0.4 µg/mL (≈ 0.812 µM); in assay [4] it was 0.2 µg/mL (≈ 0.406 µM); in assay [5] it was 0.2 µg/mL (≈ 0.406 µM); in assay [6], 0.05 µg/mL (≈ 0.102 µM); in assay [7], 0.012 µg/mL (≈ 0.0244 µM). Further, the MIC80 in assay [8] amounted to 0.025 µg/mL (≈ 0.0508 µM).
For `Cc1ccc(-c2ccc(CN(C)CC(O)(Cn3cncn3)c3ccc(F)cc3F)nc2)cc1` (stereo not given), the MIC80 in assay [1] turned out to be 0.012 µg/mL (≈ 0.0267 µM); in assay [2] it was 0.8 µg/mL (≈ 1.78 µM); in assay [4], 0.2 µg/mL (≈ 0.445 µM); in assay [5] it was 1.6 µg/mL (≈ 3.56 µM); in assay [6] it was 0.1 µg/mL (≈ 0.222 µM); in assay [7], 0.012 µg/mL (≈ 0.0267 µM). Besides, the MIC80 in assay [8] was found to be 0.25 µg/mL (≈ 0.556 µM).
